# PubChem BioAssay (NCI)
#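 Compound exposure: 48 hours, 5 concentrations, 96-well plates. TGI: total growth inhibition.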
# Tests used:
# Assay in all cases: NCI tumour cell line growth inhibition, 48 h
# SK-MEL-5 melanoma = test system: SK-MEL-5 melanoma
# SR leukemia = test system: SR leukemia
# MOLT-4 leukemia = test system: MOLT-4 leukemia
# HCT-116 colon = test system: HCT-116 colon
# A549 NSCLC = test system: A549 NSCLC
# PC-3 prostate = test system: PC-3 prostate
# SF-295 CNS = test system: SF-295 CNS
# UACC-62 melanoma = test system: UACC-62 melanoma
# A498 renal = test system: A498 renal
# U251 CNS = test system: U251 CNS
# IGROV1 ovarian = test system: IGROV1 ovarian
# RXF 393 renal = test system: RXF 393 renal
# T-47D breast = test system: T-47D breast
# SK-MEL-2 melanoma = test system: SK-MEL-2 melanoma
# CAKI-1 renal = test system: CAKI-1 renal
# CCRF-CEM leukemia = test system: CCRF-CEM leukemia
# UO-31 renal = test system: UO-31 renal
# KM12 colon = test system: KM12 colon
# HT29 colon = test system: HT29 colon
# SF-268 CNS = test system: SF-268 CNS
# TK-10 renal = test system: TK-10 renal
# HCT-15 colon = test system: HCT-15 colon
# SK-OV-3 ovarian = test system: SK-OV-3 ovarian
# OVCAR-4 ovarian = test system: OVCAR-4 ovarian
# HS 578T breast = test system: HS 578T breast
# MALME-3M melanoma = test system: MALME-3M melanoma
# MCF7 breast = test system: MCF7 breast
# OVCAR-8 ovarian = test system: OVCAR-8 ovarian
# K-562 leukemia = test system: K-562 leukemia
# M14 melanoma = test system: M14 melanoma
# NCI-H23 lung = test system: NCI-H23 lung
# NCI-H226 lung = test system: NCI-H226 lung
# OVCAR-3 ovarian = test system: OVCAR-3 ovarian
# BT-549 breast = test system: BT-549 breast
# NCI-H522 lung = test system: NCI-H522 lung
# SF-539 CNS = test system: SF-539 CNS
# NCI-H460 lung = test system: NCI-H460 lung
# DU-145 prostate = test system: DU-145 prostate
# HCC-2998 colon = test system: HCC-2998 colon
# EKVX NSCLC = test system: EKVX NSCLC
# MDA-MB-231 breast = test system: MDA-MB-231 breast
# ACHN renal = test system: ACHN renal
# SNB-19 CNS = test system: SNB-19 CNS
# SN12C renal = test system: SN12C renal
# SW-620 colon = test system: SW-620 colon
# SNB-75 CNS = test system: SNB-75 CNS
# UACC-257 melanoma = test system: UACC-257 melanoma
# SK-MEL-28 melanoma = test system: SK-MEL-28 melanoma
# HL-60(TB) leukemia = test system: HL-60(TB) leukemia
# 786-0 renal = test system: 786-0 renal
# OVCAR-5 ovarian = test system: OVCAR-5 ovarian
# COLO 205 colon = test system: COLO 205 colon
# HOP-62 NSCLC = test system: HOP-62 NSCLC
# MDA-N = test system: MDA-N
# NCI/ADR-RES ovarian = test system: NCI/ADR-RES ovarian
# LOX IMVI melanoma = test system: LOX IMVI melanoma
# RPMI-8226 leukemia = test system: RPMI-8226 leukemia
# HOP-92 NSCLC = test system: HOP-92 NSCLC
# MDA-MB-435 = test system: MDA-MB-435
structure (smiles),measurement,setting,value
O=NNc1ccc(Sc2ccc3ccccc3c2)cn1,TGI,SK-MEL-5 melanoma,39.1 µM
same,TGI,SR leukemia,> 100 µM
same,TGI,MOLT-4 leukemia,> 100 µM
same,TGI,HCT-116 colon,40.6 µM
same,TGI,A549 NSCLC,> 100 µM
same,TGI,PC-3 prostate,> 100 µM
same,TGI,SF-295 CNS,> 100 µM
same,TGI,UACC-62 melanoma,> 100 µM
same,TGI,A498 renal,> 100 µM
same,TGI,U251 CNS,> 100 µM
same,TGI,IGROV1 ovarian,> 100 µM
same,TGI,RXF 393 renal,4.12 µM
same,TGI,T-47D breast,77.9 µM
same,TGI,SK-MEL-2 melanoma,43.4 µM
same,TGI,CAKI-1 renal,> 100 µM
same,TGI,CCRF-CEM leukemia,59.6 µM
same,TGI,UO-31 renal,> 100 µM
same,TGI,KM12 colon,> 100 µM
same,TGI,HT29 colon,> 100 µM
same,TGI,SF-268 CNS,> 100 µM
same,TGI,TK-10 renal,> 100 µM
same,TGI,HCT-15 colon,60 µM
same,TGI,SK-OV-3 ovarian,> 100 µM
same,TGI,OVCAR-4 ovarian,> 100 µM
same,TGI,HS 578T breast,> 100 µM
same,TGI,MALME-3M melanoma,35.6 µM
same,TGI,MCF7 breast,> 100 µM
same,TGI,OVCAR-8 ovarian,> 100 µM
same,TGI,K-562 leukemia,> 100 µM
same,TGI,M14 melanoma,60.2 µM
same,TGI,NCI-H23 lung,> 100 µM
same,TGI,NCI-H226 lung,> 100 µM
same,TGI,OVCAR-3 ovarian,> 100 µM
same,TGI,BT-549 breast,77.1 µM
same,TGI,NCI-H522 lung,54 µM
same,TGI,SF-539 CNS,> 100 µM
same,TGI,NCI-H460 lung,> 100 µM
same,TGI,DU-145 prostate,79.7 µM
same,TGI,HCC-2998 colon,31.2 µM
same,TGI,EKVX NSCLC,> 100 µM
same,TGI,MDA-MB-231 breast,> 100 µM
same,TGI,ACHN renal,> 100 µM
same,TGI,SNB-19 CNS,> 100 µM
same,TGI,SN12C renal,> 100 µM
same,TGI,SW-620 colon,> 100 µM
same,TGI,SNB-75 CNS,> 100 µM
same,TGI,UACC-257 melanoma,> 100 µM
same,TGI,SK-MEL-28 melanoma,> 100 µM
same,TGI,HL-60(TB) leukemia,24.9 µM
same,TGI,786-0 renal,> 100 µM
same,TGI,OVCAR-5 ovarian,> 100 µM
same,TGI,COLO 205 colon,> 100 µM
same,TGI,HOP-62 NSCLC,50.2 µM
same,TGI,MDA-N,> 100 µM
same,TGI,NCI/ADR-RES ovarian,89.4 µM
c1csc(-c2ccc(-c3ccsc3)s2)c1,TGI,SK-MEL-5 melanoma,> 100 µM
same,TGI,SR leukemia,> 100 µM
same,TGI,MOLT-4 leukemia,> 100 µM
same,TGI,HCT-116 colon,> 100 µM
same,TGI,A549 NSCLC,> 100 µM
same,TGI,PC-3 prostate,> 100 µM
same,TGI,SF-295 CNS,> 100 µM
same,TGI,UACC-62 melanoma,> 100 µM
same,TGI,A498 renal,> 100 µM
same,TGI,U251 CNS,> 100 µM
same,TGI,IGROV1 ovarian,> 100 µM
same,TGI,RXF 393 renal,> 100 µM
same,TGI,T-47D breast,> 100 µM
same,TGI,SK-MEL-2 melanoma,> 100 µM
same,TGI,CAKI-1 renal,> 100 µM
same,TGI,CCRF-CEM leukemia,> 100 µM
same,TGI,UO-31 renal,> 100 µM
same,TGI,KM12 colon,> 100 µM
same,TGI,HT29 colon,> 100 µM
same,TGI,SF-268 CNS,> 100 µM
same,TGI,TK-10 renal,> 100 µM
same,TGI,HCT-15 colon,> 100 µM
same,TGI,SK-OV-3 ovarian,> 100 µM
same,TGI,OVCAR-4 ovarian,> 100 µM
same,TGI,LOX IMVI melanoma,> 100 µM
same,TGI,HS 578T breast,> 100 µM
same,TGI,MALME-3M melanoma,> 100 µM
same,TGI,MCF7 breast,> 100 µM
same,TGI,OVCAR-8 ovarian,> 100 µM
same,TGI,K-562 leukemia,> 100 µM
same,TGI,RPMI-8226 leukemia,> 100 µM
same,TGI,M14 melanoma,> 100 µM
same,TGI,NCI-H23 lung,> 100 µM
same,TGI,HOP-92 NSCLC,> 100 µM
same,TGI,NCI-H226 lung,> 100 µM
same,TGI,BT-549 breast,> 100 µM
same,TGI,MDA-MB-435,> 100 µM
same,TGI,NCI-H522 lung,> 100 µM
same,TGI,SF-539 CNS,> 100 µM
same,TGI,NCI-H460 lung,> 100 µM
same,TGI,HCC-2998 colon,> 100 µM
same,TGI,EKVX NSCLC,> 100 µM
same,TGI,MDA-MB-231 breast,> 100 µM
same,TGI,ACHN renal,> 100 µM
same,TGI,SNB-19 CNS,> 100 µM
same,TGI,SN12C renal,> 100 µM
same,TGI,SW-620 colon,> 100 µM
same,TGI,SNB-75 CNS,> 100 µM
same,TGI,UACC-257 melanoma,> 100 µM
same,TGI,SK-MEL-28 melanoma,> 100 µM
same,TGI,HL-60(TB) leukemia,> 100 µM
same,TGI,786-0 renal,> 100 µM
same,TGI,OVCAR-5 ovarian,> 100 µM
same,TGI,COLO 205 colon,> 100 µM
same,TGI,HOP-62 NSCLC,> 100 µM
same,TGI,MDA-N,> 100 µM
same,TGI,NCI/ADR-RES ovarian,> 100 µM
